Patent publication US20070117776A1, “Low Dose Therapy Of DNA Methylation Inhibitors” (priority 2005, published 2007)
Like-named read-outs stand apart in the source and are kept apart here.

Columns and labels:
[1] = type: physicochemical
Procedure: Maintaining the solution at low temperature and buffering the drug can control degradation kinetics of aqueous solutions but the stability achieved is not sufficient to render the product stable during its entire proposed shelf life. A dry solid formulation of decitabine which is stable was achieved by lyophilization of an aqueous solution. The process of lyophilization to obtain a solid form is considered essential for maximizing the stability of the product.
A bulk solution of 5 mg/mL of decitabine was prepared during compounding. To minimize degradation during compounding of the bulk solution prior to lyophilization, the bulk solution was maintained at low temperature, and the time the drug remains in solution prior to lyophilization was minimized. Maximum solution stability was achieved by dissolving the drug in a pH 6.8-7.0 phosphate buffer solution at 0-4° C.
Based on the results, appropriate recommendations for the preparation and storage of the reconstituted and diluted solutions can be made to pharmacists and clinical practitioners. The product was reconstituted in 10 mL WFI and diluted with one of the three pre-chilled infusion fluids indicated in Table 1 and Table 2 to two different concentrations, 0.1 mg/mL and 1 mg/mL covering the entire concentration range expected to be used in the clinical setting. The diluted solutions were stored for one to ten hours in infusion bags in the refrigerator at 2-8° C. to simulate conditions prior to infusion and then removed and placed at room temperature to simulate conditions during infusion. Bags placed in the refrigerator for one hour were removed and placed at room temperature and sampled thereafter for the next three hours at room temperature (Experiment No. 1) while the bags placed in the refrigerator for ten hours were removed and sampled for the next two hours at room temperature (Experiment No. 2).
The method used to estimate degradation products is based on percent peak area measurements assuming the degradation products have a response factor of 1, with respect to decitabine.
Table 1 and Table 2 also show the pH data obtained after the preparation of the infusion, which is consistently within ±0.3 pH units of neutral pH.

[2] = test system: cytidine deaminases; settings: enzymatic degradation by cytidine deaminases, particularly in the small intestine; cited from earlier work
[3] = about 1.0 mg/mL in 0.9% NaCl, Experiment 1 (2-8° C. one hour, then room temperature), at 0 h
[4] = about 1.0 mg/mL in 0.9% NaCl, Experiment 1 (2-8° C. one hour, then room temperature), at 1 h
[5] = about 1.0 mg/mL in 0.9% NaCl, Experiment 1 (2-8° C. one hour, then room temperature), at 2 h
[6] = about 1.0 mg/mL in 0.9% NaCl, Experiment 1 (2-8° C. one hour, then room temperature), at 3 h
[7] = about 1.0 mg/mL in 0.9% NaCl, Experiment 1 (2-8° C. one hour, then room temperature), at 4 h
[8] = about 1.0 mg/mL in 0.9% NaCl, Experiment 2 (2-8° C. ten hours, then room temperature), at 0 h
[9] = about 1.0 mg/mL in 0.9% NaCl, Experiment 2 (2-8° C. ten hours, then room temperature), at 10 h
[10] = about 1.0 mg/mL in 0.9% NaCl, Experiment 2 (2-8° C. ten hours, then room temperature), at 11 h
[11] = about 1.0 mg/mL in 0.9% NaCl, Experiment 2 (2-8° C. ten hours, then room temperature), at 12 h
[12] = about 1.0 mg/mL in 5% Dextrose, Experiment 1 (2-8° C. one hour, then room temperature), at 0 h
[13] = about 1.0 mg/mL in 5% Dextrose, Experiment 1 (2-8° C. one hour, then room temperature), at 1 h
[14] = about 1.0 mg/mL in 5% Dextrose, Experiment 1 (2-8° C. one hour, then room temperature), at 2 h
[15] = about 1.0 mg/mL in 5% Dextrose, Experiment 1 (2-8° C. one hour, then room temperature), at 3 h
[16] = about 1.0 mg/mL in 5% Dextrose, Experiment 1 (2-8° C. one hour, then room temperature), at 4 h
[17] = about 1.0 mg/mL in 5% Dextrose, Experiment 2 (2-8° C. ten hours, then room temperature), at 0 h
[18] = about 1.0 mg/mL in 5% Dextrose, Experiment 2 (2-8° C. ten hours, then room temperature), at 10 h
[19] = about 1.0 mg/mL in 5% Dextrose, Experiment 2 (2-8° C. ten hours, then room temperature), at 11 h
[20] = about 1.0 mg/mL in 5% Dextrose, Experiment 2 (2-8° C. ten hours, then room temperature), at 12 h
[21] = about 1.0 mg/mL in Lactated Ringer's, Experiment 1 (2-8° C. one hour, then room temperature), at 0 h
[22] = about 1.0 mg/mL in Lactated Ringer's, Experiment 1 (2-8° C. one hour, then room temperature), at 1 h
[23] = about 1.0 mg/mL in Lactated Ringer's, Experiment 1 (2-8° C. one hour, then room temperature), at 2 h
[24] = about 1.0 mg/mL in Lactated Ringer's, Experiment 1 (2-8° C. one hour, then room temperature), at 3 h
[25] = about 1.0 mg/mL in Lactated Ringer's, Experiment 1 (2-8° C. one hour, then room temperature), at 4 h
[26] = about 1.0 mg/mL in Lactated Ringer's, Experiment 2 (2-8° C. ten hours, then room temperature), at 0 h
[27] = about 1.0 mg/mL in Lactated Ringer's, Experiment 2 (2-8° C. ten hours, then room temperature), at 10 h
[28] = about 1.0 mg/mL in Lactated Ringer's, Experiment 2 (2-8° C. ten hours, then room temperature), at 11 h
[29] = about 1.0 mg/mL in Lactated Ringer's, Experiment 2 (2-8° C. ten hours, then room temperature), at 12 h

Structure (SMILES): Nc1ncn([C@H]2C[C@H](O)[C@@H](CO)O2)c(=O)n1 [Decitabine, 4-amino-1-(2-deoxy-β-D-erythro-pentofuranosyl)-1,3,5-triazin-2(1H)-one]
- pH after the preparation of the infusion ([1]; about 1.0 mg/mL in 0.9% NaCl): 6.7
- Decitabine Content [1, 3]: 98.0%
- Total Impurities [1, 3]: (2.1%)
- Decitabine Content [1, 4]: 96.8%
- Total Impurities [1, 4]: (3.3%)
- Decitabine Content [1, 5]: 94.8%
- Total Impurities [1, 5]: (5.2%)
- Decitabine Content [1, 6]: 92.8%
- Total Impurities [1, 6]: (7.3%)
- Decitabine Content [1, 7]: 91.1%
- Total Impurities [1, 7]: (9.0%)
- Decitabine Content [1, 8]: 97.4%
- Total Impurities [1, 8]: (2.7%)
- Decitabine Content [1, 9]: 93.4%
- Total Impurities [1, 9]: (6.7%)
- Decitabine Content [1, 10]: 92.5%
- Total Impurities [1, 10]: (7.6%)
- Decitabine Content [1, 11]: 90.8%
- Total Impurities [1, 11]: (9.2%)
- pH after the preparation of the infusion ([1]; about 1.0 mg/mL in 5% Dextrose): 7.1
- Decitabine Content [1, 12]: 98.0%
- Total Impurities [1, 12]: (2.0%)
- Decitabine Content [1, 13]: 97.0%
- Total Impurities [1, 13]: (3.1%)
- Decitabine Content [1, 14]: 95.6%
- Total Impurities [1, 14]: (4.4%)
- Decitabine Content [1, 15]: 93.7%
- Total Impurities [1, 15]: (6.4%)
- Decitabine Content [1, 16]: 91.9%
- Total Impurities [1, 16]: (8.1%)
- Decitabine Content [1, 17]: 97.7%
- Total Impurities [1, 17]: (2.4%)
- Decitabine Content [1, 18]: 94.5%
- Total Impurities [1, 18]: (5.5%)
- Decitabine Content [1, 19]: 93.9%
- Total Impurities [1, 19]: (6.1%)
- Decitabine Content [1, 20]: 93.0%
- Total Impurities [1, 20]: (7.1%)
- pH after the preparation of the infusion ([1]; about 1.0 mg/mL in Lactated Ringer's): 6.8
- Decitabine Content [1, 21]: 98.1%
- Total Impurities [1, 21]: (2.0%)
- Decitabine Content [1, 22]: 97.3%
- Total Impurities [1, 22]: (2.7%)
- Decitabine Content [1, 23]: 96.2%
- Total Impurities [1, 23]: (3.8%)
- Decitabine Content [1, 24]: 95.1%
- Total Impurities [1, 24]: (4.9%)
- Decitabine Content [1, 25]: 93.7%
- Total Impurities [1, 25]: (6.4%)
- Decitabine Content [1, 26]: 98.0%
- Total Impurities [1, 26]: (2.1%)
- Decitabine Content [1, 27]: 94.1%
- Total Impurities [1, 27]: (5.9%)
- Decitabine Content [1, 28]: 93.3%
- Total Impurities [1, 28]: (6.8%)
- Decitabine Content [1, 29]: 91.8%
- Total Impurities [1, 29]: (8.2%)
- visual inspection of solutions ([1]; all reconstituted and diluted solutions): clear and colorless
- drug content in the infusion solution during infusion ([1]; infusions prepared and stored as instructed): above 90%
- oral bioavailability [2]: reduced oral bioavailability
